Measured values reported in patent US20200339544A1 (JOINT STOCK COMPANY "BIOCAD", priority 2017, published 2020).
Read-outs that look alike come from different tables or passages of the source. Marks after values point to notes of the source that are not given here.

Columns and labels:
[1] = Chemical stability in human blood plasma; assay type: in vitro ADME; conditions: pooled human blood plasma; 10 μm; 4 hours at 37° C.; substance amount remaining
Protocol: 2) Determination of chemical stability in human blood plasma.
Determination of stability in human blood plasma was performed using pooled human blood plasma taken from ten healthy donors. The initial candidate solution (10 mM in DMSO) was diluted with pooled blood plasma to a concentration of 10 μm (test solution). The test solution was incubated in a dry block thermostat for 4 hours at 37° C. HPLC with Agilent 1200 liquid chromatography system (Agilent, USA) was employed to determine peak areas of the compounds in test samples, said peak areas corresponding to the initial test time (prior to incubation) and the final test time (after incubation in a dry block thermostat for 4 hours at 37° C.), proteins were preliminarily precipitated with acetonitrile. We used gradient elution (1 mL/min flow rate). Substance amount in % in a sample after thermostatting was determined.
The stability of the compounds was estimated.

[2] = biological target: T1, WT EGFR (Wild-Type EGFR) (Homo sapiens, UniProt P00533); assay: Inhibition of WT EGFR kinase activity (ADP-Glo); assay type: biochemical
T1 construct: purchased SignalChem
Protocol: (§1) To assess IC50 values of the compounds disclosed herein, a biochemical assay of inhibition of kinase activity in a non-cellular system and a functional cellular anti-proliferation assay were used.
(§2) To assess inhibition of WT EGFR (Wild-Type EGFR), DM EGFR (DoubleMutantEGFR, L828R/T790M) kinase activity, SignalChem kinase system and ADP-Glo™ Kinase Assay (V9102, Promega) detection kit were used.
(§3) The measurements were carried out in a 25 μL reaction volume using a 96-well plate. […] The solution of 0.5 mg/mL peptide substrate and 50 μM ATP in the same buffer were added; the solution was incubated for 180 minutes at 37° C. To detect the amount of ATP taken up during the kinase reaction, the ADP Glo Detection Kit (V9102, Promega) was used. The luminescence was measured with the Infinite M200Pro plate spectrophotometer (Tecan, Switzerland). IC50 values were calculated using Magellan 7.2 software (Tecan, Switzerland) approximating experimental points by four-parameter logistic model with the optimization by Levenberg-Marquardt (Table 14).

[3] = biological target: T2, DM EGFR (DoubleMutantEGFR, L828R/T790M) (Homo sapiens, UniProt P00533, L858R/T790M); assay: Inhibition of DM EGFR kinase activity (ADP-Glo); assay type: biochemical; conditions: for IC50: inhibition of kinase activity, EGFR DM (L828R/T790M); for SI, IC50(WT)/IC50(DM): selectivity index, kinase EGFR WT vs EGFR DM
T2 construct: purchased SignalChem
Protocol: as §1, §2, §3

[4] = system: A549 (lung adenocarcinoma, WT); assay: Antiproliferative activity on A549 cells (Alamar Blue); assay type: cell-based; conditions: Homo sapiens, antiproliferative test
Protocol: (§4) Antiproliferative activity of EGFR inhibitors (Tables 15 and 16) was measured in cell-based bioassay on continuous epithelial cell cultures: A549 (lung adenocarcinoma, ATCC® CRM-CCL-185™—WT), HCC827 (lung adenocarcinoma, ATCC® CRL-2868™—SM (SingleMutantEGFR, exon19delE746-A750)) and H1975 (lung adenocarcinoma, ATCC® CRL-5908™—DM (DoubleMutantEGFR, L828R/T790M)) using cell viability reagent Alamar Blue (ThermoFisher, # DAL1100). Cells were cultured in 10% FBS-supplemented (Gibco, #16140071) RPMI-1640 (PanEco, S330p) for at least 1 passage after thawing, washed with PBS and passaged in 96-well culture plates (3599, Corning) with RPMI-1640 growth medium supplemented with 2% FBS in an amount of 5*10^3 cells/well for A549, 10*10^3 cells/well for HCC827 and 15*10^3 cells/well for H1975 in 100 μL, and incubated at 37° C. in an incubator (Thermo Forma, USA) under 5% of CO2 for 16-18 h for cell attachment.
(§5) The test compounds were dissolved in DMSO in the selected range of concentrations and transferred to RPMI-1640 medium (PanEco, S330p) supplemented with 2% FBS. After adding 50 μl of the prepared dilutions to the cells, the incubation mixture contained the final concentrations of the test substances and no more than 1% DMSO. The plates were Incubated at 37° C. for 72 h. After incubation, 15 μl of Alamar Blue vital dye (ThermoFisher, # DAL1100) was added to each well. The plates were shaken on an orbital shaker (Biosan, Latvia) and further incubated for 3-5 h in a CO2 incubator (Thermo Forma, USA). Number of living cells was estimated using a plate spectrophotometer Infinite M200Pro, (Tecan, Switzerland) measuring fluorescent signal at the excitation wavelength (λEx) of 540 nm and emission wavelength (λEm) of 590 nm.
IC50 was calculated using Magellan 7.2 software (Tecan, Switzerland) approximating experimental points by four-parameter logistic model with the optimization by Levenberg-Marquardt.
(§6) The ratio between IC50 for cell lines containing wild-type EGFR (A549) and IC50 for cell lines containing target mutation L828R/T790M (H1975) is the selectivity index (SI): […]

[5] = system: H1975 (lung adenocarcinoma, DM, L828R/T790M); assay: Antiproliferative activity on H1975 cells (Alamar Blue); assay type: cell-based; conditions: for IC50: Homo sapiens, NCI-H1975, H1975 cells; for SI IC50(A549)/IC50(DM): selectivity index, A549 vs H1975 cells
Protocol: as §4, §5
IC50 was calculated using Magellan 7.2 software (Tecan, Switzerland) approximating experimental points by four-parameter logistic model with the optimization by Levenberg-Marquardt. […]
as §6

[6] = General cytotoxicity on HepG2 cells; assay type: cell-based; conditions: human; general cytotoxicity, HepG2 cells, 72 hours, average of several tests
Protocol: (§7) The CC50 values were determined in the test for General cytotoxicity on HepG2 cells (rhepatocellular carcinoma, ATCC® HB-8065™) (Table 16). The cells were subcultured in DMEM medium (PanEco, S420p) supplemented with 10% FBS (Gibco, #16140071) for at least 1 passage after thawing, washed with PBS and passaged in 96-well culture plates (3599, Corning) at a concentration of 2*10^4 cells/100 μL per well, and incubated for 16-18 h. The test substances were titrated in DMSO and transferred to DMEM (PanEco, S420p) medium supplemented with 2% FBS, added to the cells and incubated at 37° C. for 72 hours; viability of the cells was then assessed using Alamar Blue dye (ThermoFisher, # DAL1100). CC50 was determined similarly to IC50.
(§8) The ratio between CC50 for HepG2 cell line and IC50 for H1975 cell line is the therapeutic index (TI): […]

[7] = system: HepG2 cells; assay: General cytotoxicity on HepG2 cells; assay type: cell-based; conditions: therapeutic index, CC50 HepG2 / IC50 H1975
Protocol: as §7, §8

[8] = average values obtained in several tests, Table 16, read-out: H1975 (DM) IC50
[9] = antiproliferative test, Table 15, read-out: IC50 H1975 (DM)

Row | SMILES | Stability in blood plasma, % [1] [%] | IC50 [2] [nM] | IC50 [3] [nM] | SI, IC50(WT)/IC50(DM) [3] | IC50 [4] [nM] | IC50 [5, 8] [nM] | IC50 [5, 9] [nM] | SI IC50(A549)/IC50(DM) [5] | CC50 at 72 h [6] [nM] | TI, CC50/IC50 [7]
1 | C=CC(=O)Nc1cc(Nc2nccc(C(=O)c3ccc(N4CCC[C@H](OC)C4)cc3)n2)c(OC)cc1N(C)CCN(C)C [EGFR_3365_110, (S)-N-(2-((2-(dimethylamino)ethyl)(methyl)amino)-4-methoxy-5-((4-(4-(3-methoxypiperidin-1-yl)benzoyl)pyrimidin-2-yl)amino)phenyl)acrylamide] | 95.7 | 97.7 | 2.32 | 42.20 | 9510 | 21.7 | 21.7 | 439 | 18500 | 855
2 | C=CC(=O)Nc1cc(Nc2nccc(C(=O)c3ccc(OC4CC4)cc3)n2)c(OC)cc1N(C)CCN(C)C [EGFR_3365_116, N-(5-((4-(4-cyclopropoxybenzoyl)pyrimidin-2-yl)amino)-2-((2-(dimethylamino)ethyl)(methyl)amino)-4-methoxyphenyl)acrylamide] | 86.0 | 35 | 1.75 | 19.99 | 11800 | 29.5 | 29.5 | 400 | 22100 | 749
3 | C=CC(=O)Nc1cc(Nc2nccc(C(=O)c3ccc(N4CCCC4=O)cc3)n2)c(OC)cc1N(C)CCN(C)C [EGFR_3365_91] | 95.4 | 107 | 4.55 | 23.60 | 31600 | – | > 200 | <158 | – | –
4 | C=CC(=O)Nc1cc(Nc2nccc(C(=O)c3ccc(N4CCCCC4)cc3OC)n2)c(OC)cc1N(C)CCN(C)C [EGFR_3365_122, N-(2-((2-(dimethylamino)ethyl)(methyl)amino)-4-methoxy-5-((4-(2-methoxy-4-(piperidin-1-yl)benzoyl)pyrimidin-2-yl)amino)phenyl)acrylamide] | 92.2 | 19.7 | 2.67 | 7.35 | 5310 | 2.21 | 2.21 | 2398 | 12600 | 5710
5 | C=CC(=O)Nc1cc(Nc2nccc(C(=O)c3ccc(N4CCC(N(C)C)CC4)cc3OC)n2)c(OC)cc1N(C)CCN(C)C [EGFR_3365_127, N-(2-((2-(dimethylamino)ethyl)(methyl)amino)-5-((4-(4-(4-(dimethylamino)piperidin-1-yl)-2-methoxybenzoyl)pyrimidin-2-yl)amino)-4-methoxyphenyl)acrylamide] | – | 24.5 | 2.96 | 8.29 | > 10000 | – | 8.45 | >166** | – | –
6 | C=CC(=O)Nc1cc(Nc2nccc(C(=O)c3ccc(N4CCC(N)CC4)cc3OC)n2)c(OC)cc1N(C)CCN(C)C [EGFR_3365-126] | – | 19.8 | 1.86 | 10.62 | – | – | – | – | – | –
7 | C=CC(=O)Nc1cc(Nc2nccc(C(=O)c3ccc(N4CCC(OC)CC4)cc3)n2)c(OC)cc1N(C)CCN(C)C [EGFR_3365_98, N-(2-((2-(dimethylamino)ethyl)(methyl)amino)-4-methoxy-5-((4-(4-(4-methoxypiperidin-1-yl)benzoyl)pyrimidin-2-yl)amino)phenyl)acrylamide] | 96.1 | 83.2 | 1.86 | 44.62 | 14500 | 13.7 | 13.7 | 1065 | 24200 | 1770
8 | C=CC(=O)Nc1cc(Nc2nccc(C(=O)c3ccc(OCCOC)cc3)n2)c(OC)cc1N(C)CCN(C)C [EGFR_3365_92, N-(2-((2-(dimethylamino)ethyl)(methyl)amino)-4-methoxy-5-((4-(4-(2-methoxyethoxy)benzoyl)pyrimidin-2-yl)amino)phenyl) acrylamide] | 99.1 | 133 | 7.57 | 17.56 | 22900 | – | 35.1 | 652 | – | –
